The target in the assay is T1, AfOYE1 (Aspergillus flavus, UniProt B8N8Q9).
T1 construct: gene afvA; codon-optimised gene in pET28b, E. coli BL21(DE3); N-terminal His6-TEV tag, cut by TEV protease; about 43 kDa; dimer in the crystal; non-covalent FMN
The experiment in a line: X-ray crystal structure […] Å; UV-visible spectrum of released flavin. Format: binding. The following applies: non-covalent prosthetic group, active site; chloride and ethylene glycol also in site.

SMILES strings stand for the structures.

T1 sequence (B8N8Q9 whole entry): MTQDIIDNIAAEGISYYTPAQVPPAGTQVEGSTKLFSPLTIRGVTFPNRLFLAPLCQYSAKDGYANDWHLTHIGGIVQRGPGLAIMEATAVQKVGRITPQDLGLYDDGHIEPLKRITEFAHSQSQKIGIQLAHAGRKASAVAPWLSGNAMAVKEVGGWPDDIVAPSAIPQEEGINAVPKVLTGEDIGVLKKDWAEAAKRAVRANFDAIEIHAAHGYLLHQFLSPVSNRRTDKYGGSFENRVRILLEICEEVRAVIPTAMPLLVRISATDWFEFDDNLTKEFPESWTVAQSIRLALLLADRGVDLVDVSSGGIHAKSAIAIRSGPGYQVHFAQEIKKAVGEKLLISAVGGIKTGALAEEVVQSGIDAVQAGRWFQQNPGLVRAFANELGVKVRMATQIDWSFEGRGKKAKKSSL

As to `Cc1cc2nc3c(=O)[nH]c(=O)nc-3n(C[C@H](O)[C@H](O)[C@H](O)COP(=O)(O)O)c2cc1C` [FMN], the “X-ray crystal structure 1.55 Å; UV-visible spectrum of released flavin” value is reported as “On the top of the β-barrel core of each monomer encircles one FMN cofactor”.

Values taken from article PMC10787880, “Structural and functional characterization of a new thermophilic-like OYE from Aspergillus flavus” (Applied Microbiology and Biotechnology, 2024).
